Laboratory results: ChEMBL document CHEMBL1139835, “Novel quinolizidinyl derivatives as antiarrhythmic agents” (J Med Chem, 2007)

How the values were obtained:
[1] = Negative inotropic activity assessed as decrease in developed tension in isolated guinea pig left atrium; assay type: functional, tissue-based; details: Cavia porcellus, Cardiac atrium
[2] = Negative chronotropic activity assessed as decrease in atrial rate in isolated guinea pig right atrium at 5 uM relative to control; assay type: functional, Cavia porcellus, Cardiac atrium; parameters: scale not given: the % may be the effect or the level left
[3] = test system: Aorta; experiment: Inhibition of calcium-induced contraction of potassium ion depolarized guinea pig aortic strips at 50 uM; assay type: functional; details: Cavia porcellus
[4] = Activity against alternating current-induced arrhythmia in guinea pig left atrium at 1 uM; assay type: functional, Cavia porcellus, Cardiac atrium
[5] = Negative inotropic activity assessed as decrease in developed tension in isolated guinea pig left atrium at 10 uM relative to control; assay type: functional, Cavia porcellus, Cardiac atrium; parameters: scale not given: the % may be the effect or the level left

## Cc1cc([N+](=O)[O-])cc(C)c1OC[C@H]1CCCN2CCCC[C@H]12
[1]
  EC50: 600 nM
[2]
  Activity: 25%
[3]
  inhibition at 50 µM: 19%
[4]
  Activity: 23%
[5]
  Activity: 83%
